In patent publication USRE46511E1, “Fused pyrimidine derivatives for inhibition of tyrosine kinase activity” (HANMI SCIENCE CO., LTD., priority 2010, dated 2017):

What was measured:
BTK = biological target: T1, BTK (Homo sapiens, UniProt Q06187); experiment: z-lyte kinase assay, BTK; assay type: biochemical
T1 construct: purchased Invitrogen
Method: (§1) The inhibiting activities of the inventive compounds obtained in Examples 1 to 237 against EGFR WT and EGFR L858R/T790M kinase were determined using z-lyte kinase assay kit (Invitrogen, PV3191). The kinases used in the test were purchased from Invitrogen.
(§2) The compounds obtained in Examples 1 to 237 were each prepared to 10 mM DMSO solution, and a solution containing 4% DMSO were prepared therefrom and diluted to a concentration of 1 μM to 0.0001 μM. […] The test was conducted in a 384 well polystyrene flat-bottomed plates. 5 μl of the diluted solution of each compound was added to each well, and 10 μl of a mixture of peptide substrate and kinase in a suitable concentration and 5 μl of 5˜300 μM ATP solution were successively added thereto and the plate was incubated in a stirrer at room temperature for 60 minutes. After 60 mins, 10 μl of coloring reagent was added to the resulting mixture to initiate a fluorescence reaction of peptide substrate and a terminating solution was added thereto for terminating the reaction. A fluorescence value of each well was determined with a fluorescence meter (Molecular Device) at 400 nm (excitation filter) and 520 nm (emission filter). […] The calculation of IC50 and the result analysis were carried out by using Microsoft Excel.
(§3) The inhibiting activities of the inventive compounds obtained in Examples 1 to 237 against BTK and JAK3 kinases were determined, respectively. The procedure of Test Example 2 was repeated except that BTK and JAK3 kinases (Invitrogen) were employed instead of using the EGFR kinase.

JAK3 = biological target: T2, JAK3 (Homo sapiens, UniProt P52333); experiment: z-lyte kinase assay, JAK3; assay type: biochemical
T2 construct: purchased Invitrogen
T2 sequence (P52333 1-1124): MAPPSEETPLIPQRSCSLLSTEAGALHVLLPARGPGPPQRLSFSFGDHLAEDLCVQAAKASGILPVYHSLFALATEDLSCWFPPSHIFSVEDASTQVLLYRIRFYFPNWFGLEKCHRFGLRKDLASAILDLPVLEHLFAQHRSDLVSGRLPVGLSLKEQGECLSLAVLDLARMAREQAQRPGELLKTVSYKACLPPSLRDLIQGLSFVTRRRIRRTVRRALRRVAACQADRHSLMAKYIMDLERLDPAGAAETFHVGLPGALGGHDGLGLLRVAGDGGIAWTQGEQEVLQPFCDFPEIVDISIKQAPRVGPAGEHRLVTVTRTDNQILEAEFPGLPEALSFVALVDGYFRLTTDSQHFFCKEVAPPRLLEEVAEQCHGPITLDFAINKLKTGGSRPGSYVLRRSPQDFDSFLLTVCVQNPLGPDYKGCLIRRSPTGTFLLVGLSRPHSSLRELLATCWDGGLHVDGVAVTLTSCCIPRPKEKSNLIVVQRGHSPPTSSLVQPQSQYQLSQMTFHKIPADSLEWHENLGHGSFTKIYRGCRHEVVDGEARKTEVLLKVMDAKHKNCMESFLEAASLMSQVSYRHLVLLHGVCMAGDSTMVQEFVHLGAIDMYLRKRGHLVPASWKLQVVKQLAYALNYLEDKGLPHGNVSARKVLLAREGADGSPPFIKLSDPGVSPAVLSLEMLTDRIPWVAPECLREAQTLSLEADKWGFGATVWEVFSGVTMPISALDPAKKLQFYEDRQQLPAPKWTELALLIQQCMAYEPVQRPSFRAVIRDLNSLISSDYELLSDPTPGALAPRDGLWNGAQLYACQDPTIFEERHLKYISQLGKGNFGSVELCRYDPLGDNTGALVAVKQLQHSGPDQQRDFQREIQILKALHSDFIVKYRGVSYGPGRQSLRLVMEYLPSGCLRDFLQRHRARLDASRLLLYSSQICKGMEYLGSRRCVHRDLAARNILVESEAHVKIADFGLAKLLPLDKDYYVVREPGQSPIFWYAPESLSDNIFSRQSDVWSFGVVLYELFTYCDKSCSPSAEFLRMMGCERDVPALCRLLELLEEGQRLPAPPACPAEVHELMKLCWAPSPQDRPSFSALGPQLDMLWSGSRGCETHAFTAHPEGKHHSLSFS
Method: as §1, §2, §3

[1] = test system: HCC827 (EGFR DelE746_A750); experiment: Inhibition test for growth of cancer cell expressing EGFR (SRB), HCC827; assay type: cell-based; conditions: Homo sapiens, HCC827, 72 h, HCC827 cells, 72 hours, SRB; read-out: GI50 HCC827 EGFR DelE746_A750;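 also: cells in 96-well plates exposed to tenfold serial dilutions from 100 µM, fixed with trichloroacetic acid, SRB-stained, absorbance read at 540 nm, DMSO under 1%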
Method: (§4) A431 cell line was incubated in a high-glucose DMEM (Dulbecco's Modified Eagle's Medium) supplemented with 10% fetal bovine serum (FBS) and 1% penicillin/streptomycin (Gibco BRL), and HCC827 and NCI-H1975 cell lines were incubated in an RPMI medium supplemented with 10% FBS, 1% penicillin/streptomycin and 1% sodium pyruvate.
(§5) The cancer cell lines stored in a liquid nitrogen tank were each quickly thawed at 37° C., and centrifuged to remove the medium. The resulting cell pellet was mixed with a culture medium, incubated in a culture flask at 37° C. under 5% CO2 for 2 to 3 days, and the medium was removed. The remaining cells were washed with DPBS (Dulbecco's Phosphate Buffered Saline) and separated from the flask by using Tripsin-EDTA. […] 100 μl of the diluted cell solution was added to each well of a 96-well plate, and incubated at 37° C. under 5% CO2 for 1 day.
(§6) In case that the test compound was not soluble in DMSO, 1% HCl was added thereto and treated in a 40° C. water bath for 30 mins until a complete dissolution was attained. The DMSO solution containing test compound was diluted with a culture medium to a final concentration of 100 μM, and then diluted 10 times serially to 10^−6 μM (a final concentration of DMSO was less than 1%).
(§7) The medium was removed from each well of the 96-well plate. And then, 100 μl of a test compound solution was added to each well holding the cultured cells, and the plate was incubated at 37° C. under 5% CO2 for 72 hours (except that NCI-H1975 cells were incubated for 48 hours). After removing the medium from the plate, 50 μA of 10% trichloroacetic acid was added to each well, and the plate was kept at 4° C. for 1 hour to fix the cells to the bottom of the plate. The added 10% trichloroacetic acid solution was removed from each well, the plate was dried, 100 μA of an SRB (Sulforhodamine-B) dye solution at a concentration of 0.4% dissolved in 1% acetic acid was added thereto, and the resulting mixture was reacted for 10 mins at room temperature. After removing the dye solution, the plate was washed with water, and well dried. When the dye solution was not effectively removed by water, 1% acetic acid was used. 150 μA of 10 mM trisma base was added to each well, and the absorbance at 540 nm wavelength was determined with a microplate reader.

[2] = test system: NCI-H1975 (EGFR L858R/T790M); experiment: Inhibition test for growth of cancer cell expressing EGFR (MTS), NCI-H1975; assay type: cell-based; conditions: Homo sapiens; NCI-H1975 cells, 48 hours, MTS; read-out: GI50 NCI-H1975 EGFR L858R/T790M
Method: as §4, §5, §6, §7

A431 (EGFR WT) = experiment: Inhibition test for growth of cancer cell expressing EGFR (SRB), A431; assay type: cell-based; conditions: Homo sapiens, A-431; A431 cells, 72 hours, SRB; read-out: GI50 A431 EGFR WT;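 also: cells in 96-well plates exposed to tenfold serial dilutions from 100 µM down to 10^−6 µM, DMSO under 1%, SRB staining read as absorbance at 540 nm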
Method: as §4, §5, §6, §7

T1 sequence (Q06187 whole entry): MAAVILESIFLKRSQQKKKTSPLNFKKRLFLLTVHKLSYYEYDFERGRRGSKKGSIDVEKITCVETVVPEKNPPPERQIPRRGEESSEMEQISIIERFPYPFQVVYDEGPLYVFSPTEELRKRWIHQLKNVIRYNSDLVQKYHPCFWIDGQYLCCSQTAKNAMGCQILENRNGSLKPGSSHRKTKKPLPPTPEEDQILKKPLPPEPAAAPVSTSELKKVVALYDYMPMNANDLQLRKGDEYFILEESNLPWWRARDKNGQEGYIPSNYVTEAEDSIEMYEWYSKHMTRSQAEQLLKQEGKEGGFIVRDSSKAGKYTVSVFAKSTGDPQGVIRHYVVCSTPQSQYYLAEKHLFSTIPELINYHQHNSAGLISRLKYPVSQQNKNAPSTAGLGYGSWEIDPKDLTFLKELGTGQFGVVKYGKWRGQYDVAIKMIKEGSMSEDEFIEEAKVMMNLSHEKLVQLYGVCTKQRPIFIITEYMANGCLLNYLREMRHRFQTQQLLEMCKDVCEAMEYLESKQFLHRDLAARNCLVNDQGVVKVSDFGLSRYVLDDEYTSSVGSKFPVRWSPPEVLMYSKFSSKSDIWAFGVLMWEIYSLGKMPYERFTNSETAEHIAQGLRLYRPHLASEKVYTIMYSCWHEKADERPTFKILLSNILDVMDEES

SMILES	IC50 (BTK)	IC50 (JAK3)	GI50 [1]	GI50 [2]	GI50 (A431 (EGFR WT))
C=CC(=O)Nc1cccc(Oc2nc(Nc3ccc(CN4CCN(C)CC4)nc3)nc3ccsc23)c1 [Example 169]	≤ 50 nM	50 to 100 nM	< 50 nM	50 to 100 nM	–
C=CC(=O)Nc1cccc(Oc2nc(Nc3ccc(CN(C)C)cc3)nc3ccsc23)c1 [Example 173]	≤ 50 nM	≤ 50 nM	< 50 nM	< 50 nM	100 to 1000 nM
C=CC(=O)Nc1cccc(Oc2nc(Nc3ccc(CN(CC)CC)cc3)nc3ccsc23)c1 [Example 174]	≤ 50 nM	50 to 100 nM	< 50 nM	< 50 nM	–
C=CC(=O)Nc1cccc(Oc2nc(Nc3ccc(CN4CCC(N(C)C)CC4)cc3)nc3ccsc23)c1 [Example 180]	≤ 50 nM	≤ 50 nM	< 50 nM	< 50 nM	> 1000 nM
C=CC(=O)Nc1cccc(Oc2nc(Nc3ccc(CN4CCC(N5CCOCC5)CC4)cc3)nc3ccsc23)c1 [Example 181]	≤ 50 nM	≤ 50 nM	< 50 nM	< 50 nM	> 1000 nM
C=CC(=O)Nc1cccc(Oc2nc(Nc3ccc(CN4CCN(C)CC4)cc3)nc3ccsc23)c1 [Example 182]	≤ 50 nM	50 to 100 nM	< 50 nM	< 50 nM	> 1000 nM
C=CC(=O)Nc1cccc(Oc2nc(Nc3ccc(CN4CCN(CC)CC4)cc3)nc3ccsc23)c1 [Example 183]	50 to 100 nM	50 to 100 nM	< 50 nM	< 50 nM	> 1000 nM
C=CC(=O)Nc1cccc(Oc2nc(Nc3ccc(CN4CCOCC4)cc3)nc3ccsc23)c1 [Example 187]	50 to 100 nM	50 to 100 nM	50 to 100 nM	< 50 nM	> 1000 nM
C=CC(=O)Nc1cccc(Oc2nc(Nc3ccc(NCCN(C)C)c(F)c3)nc3ccsc23)c1 [Example 199]	≤ 50 nM	≤ 50 nM	< 50 nM	< 50 nM	> 1000 nM
C=CC(=O)Nc1cccc(Oc2nc(Nc3ccc(C(=O)N4CCN(CC)CC4)c(Cl)c3)nc3ccsc23)c1 [Example 203]	≤ 50 nM	50 to 100 nM	< 50 nM	< 50 nM	> 1000 nM
C=CC(=O)Nc1ccc(F)c(Nc2nc(Nc3ccc(N4CCN(C)CC4)c(F)c3)nc3ccsc23)c1 [Example 219, N-(4-fluoro-3-(2-(3-fluoro-4-(4-methyl-piperazin-1-yl)-phenylamino)-thieno[3,2-d]pyrimidin-4-ylamino)-phenyl)-acrylamide]	≤ 50 nM	≤ 50 nM	< 50 nM	< 50 nM	> 1000 nM
C=CC(=O)Nc1cccc(Sc2nc(Nc3ccc(N4CCN(C)CC4)cc3)nc3ccsc23)c1 [Example 223, N-(3-(2-(4-(4-methylpiperazin-1-yl)phenylamino)thieno[3,2-d]pyrimidin-4-ylthio)phenyl)acrylamide]	≤ 50 nM	≤ 50 nM	< 50 nM	< 50 nM	> 1000 nM
C=CC(=O)Nc1cccc(Oc2nc(Nc3ccc(CN4CCC(N(C)C)CC4)cc3)nc3ccoc23)c1 [Example 232]	≤ 50 nM	≤ 50 nM	50 to 100 nM	50 to 100 nM	–

The remaining lines, values ahead:

IC50 (BTK)	IC50 (JAK3)	GI50 [1]	GI50 [2]	GI50 (A431 (EGFR WT))	SMILES
≤ 50 nM	50 to 100 nM	< 50 nM	< 50 nM	> 1000 nM	C=CC(=O)Nc1cccc(Oc2nc(Nc3ccc(N4CCN(C)CC4)c(F)c3)nc3ccsc23)c1 [Example 3]
≤ 50 nM	≤ 50 nM	< 50 nM	< 50 nM	100 to 1000 nM	C=CC(=O)Nc1cccc(Oc2nc(Nc3ccc(N4CCN(C(C)C)CC4)cc3)nc3ccsc23)c1 [Example 11]
≤ 50 nM	≤ 50 nM	50 to 100 nM	< 50 nM	> 1000 nM	C=CC(=O)Nc1cccc(Oc2nc(Nc3ccc(N4CCOCC4)cc3)nc3ccsc23)c1 [Example 29]
≤ 50 nM	50 to 100 nM	< 50 nM	< 50 nM	> 1000 nM	C=CC(=O)Nc1cccc(Oc2nc(Nc3ccc(N4CCC(CN5CCCCC5)CC4)cc3)nc3ccsc23)c1 [Example 42]
≤ 50 nM	50 to 100 nM	< 50 nM	100 to 1000 nM	> 1000 nM	C=CC(=O)Nc1cccc(Oc2nc(Nc3ccc(N4CCC(N5CCN(CC)CC5)CC4)cc3)nc3ccsc23)c1 [Example 50]
≤ 50 nM	50 to 100 nM	< 50 nM	< 50 nM	> 1000 nM	C=CC(=O)Nc1cccc(Oc2nc(Nc3ccc(C4=CCN(C)CC4)cc3)nc3ccsc23)c1 [Example 51]
≤ 50 nM	≤ 50 nM	< 50 nM	< 50 nM	> 1000 nM	C=CC(=O)Nc1cccc(Oc2nc(Nc3ccc(C4CCN(CC)CC4)cc3)nc3ccsc23)c1 [Example 53]
≤ 50 nM	≤ 50 nM	< 50 nM	< 50 nM	> 1000 nM	C=CC(=O)Nc1cccc(Oc2nc(Nc3ccc(OCCN(C)C)cc3)nc3ccsc23)c1 [Example 62]
≤ 50 nM	50 to 100 nM	< 50 nM	< 50 nM	> 1000 nM	C=CC(=O)Nc1cccc(Oc2nc(Nc3ccc(OC4CCN(CC)CC4)cc3)nc3ccsc23)c1 [Example 66]
≤ 50 nM	≤ 50 nM	< 50 nM	< 50 nM	> 1000 nM	C=CC(=O)Nc1cccc(Oc2nc(Nc3ccc(C(=O)NC4CCN(C)CC4)cc3)nc3ccsc23)c1 [Example 82]
≤ 50 nM	≤ 50 nM	< 50 nM	< 50 nM	100 to 1000 nM	C=CC(=O)Nc1cccc(Oc2nc(Nc3ccc(C(=O)NC4CCN(C(C)C)CC4)cc3)nc3ccsc23)c1 [Example 83]
≤ 50 nM	50 to 100 nM	50 to 100 nM	< 50 nM	> 1000 nM	C=CC(=O)Nc1cccc(Oc2nc(Nc3ccc(CCN4CCN(CC)CC4)cc3)nc3ccsc23)c1 [Example 99]
≤ 50 nM	≤ 50 nM	< 50 nM	< 50 nM	> 1000 nM	C=CC(=O)Nc1cccc(Oc2nc(Nc3ccc(N4CCC(N5CCCCC5)CC4)c(F)c3)nc3ccsc23)c1 [Example 125]
≤ 50 nM	≤ 50 nM	< 50 nM	< 50 nM	> 1000 nM	C=CC(=O)Nc1cccc(Oc2nc(Nc3ccc(NC4CCN(C)CC4)c(F)c3)nc3ccsc23)c1 [Example 129]
≤ 50 nM	≤ 50 nM	< 50 nM	< 50 nM	> 1000 nM	C=CC(=O)Nc1cccc(Oc2nc(Nc3ccc(C(=O)NC4CCN(C)CC4)c(Cl)c3)nc3ccsc23)c1 [Example 142]
